Data set [1] deals with duodenal epithelial mucosa tissue. The data set can be described thus: Test Example 1: atrophy of duodenal epithelial mucosa caused by 48-hour fasting, PAS-stained tissue sections. The data set is classed as in vivo, rat. The settings on record: for Density of secretion granules / Intercellular space / Size of cell / Size of nucleus: fasting rats, 48 hours. As for the experimental part:
Six-week-old male Sprague-Dawley rats (purchased from Nippon Charles River) were employed in the test. Water and solid feed (CRF-1, product of Oriental Yeast) were freely ingested by the rats. […] The test was carried out for 48 hours. For the fasting groups, solid feed was removed in the morning of the day on which the test was initiated. During the 48 hours, solid feed, water, and an ethanolamine hydrochloride-containing aqueous solution were freely ingested by the rats in the solid feed ingestion group, the water ingestion fasting group, and the ethanolamine hydrochloride ingestion fasting group, respectively. The amount of water ingested during the 48 hours was measured, and the amount of ingested ethanolamine per rat was calculated on the basis of the amount of water (Table 2). […] The small intestine was excised from each rat, and a duodenal portion (size: 1 cm in length) was removed from a position 5 cm in the direction of the anus away from the pylorus. The removed portion was fixed in phosphate buffered formalin. After 24-hour fixation, the duodenal portion was embedded in paraffin using a conventional technique, to thereby prepare a tissue section. The thus-prepared tissue sample was subjected to PAS staining, and then observed.

A short description of data set [2]: Test Example 1: body weight of fasting rats. The data set is classed as in vivo, rat. The settings on record: 48 hours; for Weight ± standard deviation, Final: fasting rats, free ingestion. As for the experimental part: Six-week-old male Sprague-Dawley rats (purchased from Nippon Charles River) were employed in the test. Water and solid feed (CRF-1, product of Oriental Yeast) were freely ingested by the rats. […] The test was carried out for 48 hours. For the fasting groups, solid feed was removed in the morning of the day on which the test was initiated. During the 48 hours, solid feed, water, and an ethanolamine hydrochloride-containing aqueous solution were freely ingested by the rats in the solid feed ingestion group, the water ingestion fasting group, and the ethanolamine hydrochloride ingestion fasting group, respectively. The amount of water ingested during the 48 hours was measured, and the amount of ingested ethanolamine per rat was calculated on the basis of the amount of water (Table 2). For each group, the rats were weighed at the time of test initiation and the time of test completion, in order to obtain the average weight (Table 1). In the fasting groups, any changes in the weight of the rats that could be attributed to ethanolamine ingestion were not observed.

For data set [3], the system named is primarily cultured liver cells. The note with it: cited from earlier work.
The test system of the next data set is keratinocyte. The note with it: cited from earlier work.
Data set [4] relates to villous epithelium of the duodenum. Put plainly: Test Example 2: duodenal disorder induced by four-day fasting and intraperitoneal 5% dextrose, HE-stained tissue sections. The settings on record: 250 mg/5 mL/kg orally twice a day, first to third fasting day, versus control group. The data set is classed as in vivo, rat. As for the experimental part:
Nine-week-old CD (SD) IGS male rats were employed in the test. The rats were kept in individual fasting cages, and the day after initiation of fasting was regarded as the first fasting day. Fasting (i.e., provision of no food and no water) was carried out for four days, and on the fourth day the rats were sacrificed through […]. A 5% dextrose solution was intraperitoneally administered to each rat in an amount of 10 mL on the basis of body weight (100 g) from the first fasting day to the third fasting day, to thereby induce disorders. The rats were divided into two groups: a control group and a drug administration group. To the rats of the control group, sterile water was orally administered in an amount of 0.5 mL per 100 g of body weight twice a day, at 10:00 AM and 4:00 PM. To the rats of the drug administration group, ethanolamine hydrochloride was administered in an amount of 250 mg/5 mL/kg twice a day, at 10:00 AM and 4:00 PM. The administration was carried out from the first fasting day to the third fasting day. On the fourth fasting day, the rats were sacrificed through cervical dislocation, and the stomach and the duodenum were removed from each rat. The inside of the intestinal tract was washed with saline. Subsequently, the pylorus was ligated and the tract was also ligated at a position 4 cm from the pylorus. […]

The mark [5] stands for this setting: 1 μM Etn in water (6 μg/kg/day).
Where [6] appears, read: 10 μM Etn in water (34 μg/kg/day).
[7] abbreviates: 100 μM Etn in water (330 μg/kg/day).
Where [8] appears, read: 1000 μM Etn in water (4500 μg/kg/day).

Counter-ions that a name gives are not always drawn.

`NCCO` [ethanolamine hydrochloride]: the “position of nuclei in cells” value in data set [1] (100 μM ingestion fasting group) is on record as “situated centrally”. In data set [1] (100 μM ingestion fasting group, compared with solid feed ingestion group), the “enlarged intercellular spaces and cell atrophy” value was “not observed”. The cell nuclei size result in data set [1] (100 μM ingestion fasting group, compared with water and 1 or 10 μM fasting groups) is “considerably enlarged”; in data set [1] (1 or 10 μM ingestion fasting groups), “reduced in size”. For the same compound, in data set [1] (100 μM ingestion fasting group, compared with water ingestion fasting group), the “PAS staining of mucus-secreting granules in goblet cells” value is recorded as “heavily stained”. Besides, the “Density of secretion granules” value in data set [1] (setting [5]) is listed as “Low”; in data set [1] (setting [6]), “Low”; in data set [1] (setting [7]) it was “High”; in data set [1] (setting [8]), “High”. Moreover, the Intercellular space entry is “Large” in data set [1] (setting [5]), “Large” in data set [1] (setting [6]), “None” in data set [1] (setting [7]) and “None” in data set [1] (setting [8]). The Size of cell result is “Small” in data set [1] (setting [5]), “Small” in data set [1] (setting [6]), “Large” in data set [1] (setting [7]) and “Large” in data set [1] (setting [8]). Further, the Size of nucleus result in data set [1] (setting [5]) is listed as “Small”; in data set [1] (setting [6]) it was “Small”; in data set [1] (setting [7]), “Large”; in data set [1] (setting [8]), “Large”. Also, the “prevention and treatment of atrophy of the small intestine caused by fasting” value in data set [1] (overall conclusion of Test Example 1) was “effective”. Besides, the “Weight ± standard deviation, Final” value in data set [2] (1 μM Etn in water) was 208.2 ± 3.1 g; in data set [2] (10 μM Etn in water), 209.4 ± 7.4 g; in data set [2] (100 μM Etn in water), 210.4 ± 3.9 g; in data set [2] (1000 μM Etn in water), 213.1 ± 6.7 g.
In the case of `NCCO` [ethanolamine], in data set [3] (in the presence of a cell growth factor such as EGF, ethanolamine 10-100 μM), the “proliferation of liver cells” value is recorded as “synergistically promoted”. Besides, the proliferation-promoting activity entry in data set [3] (only ethanolamine added, no cell growth factor) is reported as “not observed”. For the same compound, in the data set with keratinocyte, the “proliferation of epithelial cells” value is “promote proliferation”. Also, in data set [4], the cellular infiltration entry is recorded as “only slight” and the “necrosis of the villous epithelium” value is reported as “remarkably suppressed”. For the same compound, the “changes in the weight of the rats that could be attributed to ethanolamine ingestion” value in data set [2] (fasting groups) was “not observed”.

Source of the values: patent publication US6337322B1, “Preventives and remedies for intestinal mucosal disorder” (Meiji Milk Products Co., Ltd., priority 1998, dated 2002).
